Results on 3 molecules are retold here after patent US20210002231A1 (Centre National de la Recherche Scientifique, priority 2018, published 2021).

The structures appear in SMILES notation. Starred links: 1 amine or outer side, 2 acyl side, 3 side chain; linkers in the order of their positions; H or OH if unused. Non-standard residues stand in square brackets, D forms with d. Residues, ends and D or L forms follow the SMILES beside them. Nva(5-(4-Bn-piperidin-1-yl)) = N[C@@H](CCCN1CCC(Cc2ccccc2)CC1)C(=O)O; X1 = O=C1[C@@H](N[*:1])Cc2ccccc2CN1CCC(=O)[*:2]; Dmt = Cc1cc(O)cc(C)c1C[C@H](N)C(=O)O

Assay [1] concerns the target human NPFF1R (Homo sapiens, UniProt Q9GZQ6). Nature of the assay: Radioligand competition binding with [125I]-1-DMe-NPFF. Also noted: expressed in transfected cells; HEK293-Glo20F cells (cAMP). On the technique in general: In a radioligand displacement assay an active substance lowers the binding of a labelled ligand.
The target of assay [2] is T1, NPFF2R (Homo sapiens, UniProt Q9Y5X5). The assay is described as follows: Glo-sensor cAMP assay, agonist and antagonist mode. The assay is classed as cell-based. Details: expressed in transfected cells; HEK293-Glo20F cells (cAMP). To be noted: evaluated at 0.5 and 5 μM.
Assay [3] addresses T1, NPFF2R. The assay is described as follows: Radioligand competition binding with [125I]-1-DMe-NPFF. Details: expressed in transfected cells; HEK293-Glo20F cells (cAMP).
Assay [4] addresses T2, human MOPr (Homo sapiens, UniProt P35372). Nature of the assay: BRET1 β-arrestin-2 recruitment assay.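 As to MOPr (β-arrestin-2) Emax: Emax relative to maximal DAMGO-induced BRET as 100%.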 Format: cell-based. Also noted: expressed in transfected cells; host or cells: HEK293 cells stably expressing eYFP-β-arrestin-2, transiently transfected with the Rluc8-MOP plasmid. The note with it: for EC50: Table 3B, — = non-detectable recruitment, read-out: MOPr (β-arrestin-2) EC50; for Emax: read-out: MOPr (β-arrestin-2) Emax. As for the experimental part: Peak response amplitudes were normalized to basal and maximal (cells permeabilized with 20 μM digitonin) fluorescence levels. 1.8. β-Arrestin-2 recruitment assay The β-arrestin-2 recruitment assay was performed as described [34; 45] with minor modifications. Briefly, two days prior the experiment, HEK293 cells stably expressing eYFP-tagged β-arrestin-2 were transfected with the plasmid encoding Rluc8-MOP receptor. β-Arrestin-2 recruitment was measured at 37° C. in presence of 5 μM Coelenterazine H, 5 min after agonist addition.
Background: Bioluminescence resonance energy transfer reports proximity on the nanometre scale.

In assay [5] the target is T2, human MOPr. The assay is described as follows: cell-based. The assay is classed as cell-based. Also noted: expressed in transfected cells; HEK293-Glo20F cells (cAMP). To be noted: for EC50: Table 3B, read-out: MOPr (cAMP) EC50; for Emax: read-out: MOPr (cAMP) Emax. In a few lines:
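GTPγS binding used membranes of CHO cells expressing NPFF1R or NPFF2R, stimulated by RF-amide peptides or test compounds. cAMP was measured in HEK293 cells stably carrying Glosensor-20F, with or without stable expression of an opioid receptor or NPFF1R, in the presence of 1 mM D-luciferin.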
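For MOPr (cAMP) Emax in this document: Emax relative to DAMGO as 100%.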

T2 sequence (P35372 whole entry): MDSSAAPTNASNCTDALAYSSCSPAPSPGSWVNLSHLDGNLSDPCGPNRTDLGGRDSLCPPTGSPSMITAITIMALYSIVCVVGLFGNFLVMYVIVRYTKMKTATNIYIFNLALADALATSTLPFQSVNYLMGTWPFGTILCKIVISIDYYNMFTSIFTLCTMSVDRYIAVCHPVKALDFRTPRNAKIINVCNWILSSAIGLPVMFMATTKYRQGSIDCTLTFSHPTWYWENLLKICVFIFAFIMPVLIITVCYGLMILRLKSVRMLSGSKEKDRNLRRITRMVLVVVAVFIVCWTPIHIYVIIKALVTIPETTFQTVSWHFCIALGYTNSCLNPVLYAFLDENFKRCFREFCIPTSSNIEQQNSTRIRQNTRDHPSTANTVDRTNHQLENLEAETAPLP
T1 sequence (Q9Y5X5 whole entry): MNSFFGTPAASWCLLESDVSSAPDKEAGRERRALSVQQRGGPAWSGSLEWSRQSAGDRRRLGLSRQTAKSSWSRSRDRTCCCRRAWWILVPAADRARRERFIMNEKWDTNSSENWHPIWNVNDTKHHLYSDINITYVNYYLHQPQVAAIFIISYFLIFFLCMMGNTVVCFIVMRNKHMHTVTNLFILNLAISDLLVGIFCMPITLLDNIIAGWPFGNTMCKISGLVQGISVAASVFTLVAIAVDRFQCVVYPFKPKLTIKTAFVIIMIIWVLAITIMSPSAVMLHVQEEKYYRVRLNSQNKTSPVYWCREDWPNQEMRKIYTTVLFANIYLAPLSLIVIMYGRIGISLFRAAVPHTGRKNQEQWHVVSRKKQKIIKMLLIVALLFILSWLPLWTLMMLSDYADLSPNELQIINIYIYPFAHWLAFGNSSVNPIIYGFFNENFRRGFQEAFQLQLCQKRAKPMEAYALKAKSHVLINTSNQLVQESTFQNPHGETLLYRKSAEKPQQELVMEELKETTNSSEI
human NPFF1R, sequence (Q9GZQ6 whole entry): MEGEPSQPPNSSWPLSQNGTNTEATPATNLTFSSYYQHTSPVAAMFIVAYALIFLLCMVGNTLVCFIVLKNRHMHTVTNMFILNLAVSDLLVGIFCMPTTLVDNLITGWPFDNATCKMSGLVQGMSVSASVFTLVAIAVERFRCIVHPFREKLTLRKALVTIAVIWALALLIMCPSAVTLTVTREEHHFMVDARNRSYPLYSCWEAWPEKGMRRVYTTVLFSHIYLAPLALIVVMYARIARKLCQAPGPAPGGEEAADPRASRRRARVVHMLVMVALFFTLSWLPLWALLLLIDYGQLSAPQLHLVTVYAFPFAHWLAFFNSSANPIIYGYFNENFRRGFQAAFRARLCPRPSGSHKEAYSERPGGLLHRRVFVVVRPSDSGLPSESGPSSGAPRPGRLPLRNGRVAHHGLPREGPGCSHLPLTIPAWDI

`Cc1cc(O)cc(C)c1C[C@H](N)C(=O)N[C@H](CCCNC(=N)N)C(=O)N[C@H]1Cc2ccccc2CN(CCC(=O)N[C@@H](CCCN2CCC(Cc3ccccc3)CC2)C(=O)N[C@H](C(N)=O)C(C)C)C1=O` [DP0001, H-Dmt-D-Arg-Aba-β-Ala-Bpa-Val-NH2] (H-[Dmt][dR][X1][Nva(5-(4-Bn-piperidin-1-yl))]V-NH2): the results for the IC50 in assay [1] and in assay [3] were roughly 500 nM and less than 50 nM, respectively. In addition, in assay [2], the “NPFF2R (cAMP) Agonist mode” value is given as “Partial”. Further, the EC50 – broadly, the concentration needed to bring the measured effect to its halfway point – in assay [4] was 101 nM; in assay [5], 16.9 ± 8.3 nM. Moreover, the Emax (in general, the size of the effect at its maximum, as opposed to the concentration needed) in assay [4] is 52%; in assay [5] it was 124%.

Consider `CC[C@H](C)[C@H](NC(=O)[C@H](CCCN1CCC(Cc2ccccc2)CC1)NC(=O)CCN1Cc2ccccc2C[C@H](NC(=O)[C@@H](CCCNC(=N)N)NC(=O)[C@@H](N)Cc2c(C)cc(O)cc2C)C1=O)C(N)=O` [DP0002, H-Dmt-D-Arg-Aba-β-Ala-Bpa-Ile-NH2] (H-[Dmt][dR][X1][Nva(5-(4-Bn-piperidin-1-yl))]I-NH2), for which the values for the IC50 in assay [1] and in assay [3] were 50 to 500 nM and less than 50 nM, respectively. In assay [2], the “NPFF2R (cAMP) Agonist mode” value is given as “Partial”. In addition, the EC50 was determined as 45 nM in assay [4] and 8.9 ± 2.6 nM in assay [5]. For the same molecule, the Emax in assay [4] is 49%; in assay [5], 110%.

With `Cc1cc(O)cc(C)c1C[C@H](N)C(=O)N[C@H](CCCNC(=N)N)C(=O)N[C@H]1Cc2ccccc2CN(CCC(=O)N[C@@H](CCCN2CCC(Cc3ccccc3)CC2)C(=O)N[C@@H](CC(C)C)C(N)=O)C1=O` [DP0003, H-Dmt-D-Arg-Aba-β-Ala-Bpa-Leu-NH2] (H-[Dmt][dR][X1][Nva(5-(4-Bn-piperidin-1-yl))]L-NH2), the IC50 – broadly, the concentration needed to halve the response being measured – in assay [1] was 50 to 500 nM; in assay [3] it was less than 50 nM. Besides, the “NPFF2R (cAMP) Agonist mode” value in assay [2] is reported as “Partial”. Also, the EC50 in assay [4] amounted to 37 nM; in assay [5], 20.1 ± 10 nM. Besides, the Emax in assay [4] turned out to be 38%; in assay [5], 70%.
